Measurements from patent publication US20020040053A1, “Antioxidant containing vitamin E metabolite” (priority 2000, published 2002).

Assays:
[1] = 500IU RRR-α-tocopherol administered to human subject; cited from earlier work
[2] = system: LDL; test: Oxidative degeneration LDL assay using azo-compound (V-70); format: biochemical, human; conditions: for anti-oxidative activity on LDL (lag-time): added to LDL concentration-dependently, final concentration 60-1000 ng; for lag-time (time during which conjugate diene production was inhibited): final concentration 1 μg, LDL from eight male and female adults, V-70 200 μM, about 70 μg/mL LDL protein, control 88.1±29.4 minutes
Method: Blood collected from human subject was centrifuged at 3000 rpm for 10 minutes to isolate plasma. Next, KBr was added to 1.1 mL of the plasma which was then subjected to density gradient ultra-centrifugation (Single spin differential centrifugation) to collect LDL. After the determination of protein concentration, LDL was prepared by PBS.
In vitro assay of oxidatively denatured LDL was performed according to the method described by Kondo, et al. This method involves use of 2,2′-azobis([…]-2,4-dimethylvaleronitrile; V-70) as the oxidation starter. Final concentration of V-70 was 200 μM for about 70 μg/mL of LDL protein concentration, and production of the conjugate dienes of LDL was assayed at 234 nm for 300 minutes. The time during which conjugate diene production was inhibited was indicated as lag-time. The efficacy of each antioxidants was evaluated by adding the compound and V-70 at the same time and determining the lag-time caused by the compound.

SMILES: Cc1c(C)c2c(c(C)c1O)CC[C@@](C)(CCC[C@H](C)CCC[C@H](C)CCCC(C)C)O2 [RRR-α-tocopherol]
- plasma α-CEHC concentration [1]: 200 pmol/mL

SMILES: Cc1c(C)c2c(c(C)c1O)CCC(C)(CCC(=O)O)O2 (stereo not drawn) [α-CEHC, 2,5,7,8-Tetramethyl-2-(β-carboxyethyl)-6-hydroxychromane]
- anti-oxidative activity on LDL (lag-time) [2]: prolonged lag-times concentration-dependently
- lag-time (time during which conjugate diene production was inhibited) [2]: 190.8 ± 65.1 min

SMILES: Cc1c(O)cc2c(c1C)OC(C)(CCC(=O)O)CC2 (stereo not drawn) [γ-CEHC, 2,7,8-trimethyl-2-(β-carboxyethyl)-6-hydroxychromane]
- anti-oxidative activity on LDL (lag-time) [2]: prolonged lag-times concentration-dependently
- extension rate of lag-time (control = 1), FIG. 1 ([2]; final concentration 60 ng, close to 200 pmol/mL (lower concentration)): greater increase in extension rate of lag-time than those of α-CEHC and Trolox groups
- anti-oxidative effects on LDL, comparison between compounds ([2]; final concentration 1 μg (higher concentration)): significantly stronger anti-oxidative effects on LDL than α-CEHC did
- lag-time (time during which conjugate diene production was inhibited) [2]: 263.1 ± 114.8 min
